In patent US7868139B2, “Compositions and methods for the identification and treatment of immune-mediated inflammatory diseases” (UAB Research Foundation, priority 2006, dated 2011):
“Also recorded” adds a separate entry of the source. Peptide text beside a SMILES is read from it. * marks the point of attachment. Cbz = O=C(OCc1ccccc1)*; OtBu = CC(C)(C)O*

B1: ovalbumin (protein, UniProt P01012 2-386, looked up)
Ovalbumin: GSIGAASMEFCFDVFKELKVHHANENIFYCPIAIMSALAMVYLGAKDSTRTQINKVVRFDKLPGFGDSIEAQCGTSVNVHSSLRDILNQITKPNDVYSFSLASRLYAEERYPILPEYLQCVKELYRGGLEPINFQTAADQARELINSWVESQTNGIIRNVLQPSSVDSQTAMVLVNAIVFKGLWEKAFKDEDTQAMPFRVTEQESKPVQMMYQIGLFRVASMASEKMKILELPFASGTMSMLVLLPDEVSGLEQLESIINFEKLTEWTSSNVMEERKIKVYLPRMKMEEKYNLTSVLMAMGITDVFSSSANLSGISSAESLKISQAVHAAHAEINEAGREVVGSAEAGVDAASVSEEFRADHPFLFCIKHIATNAVLFFGRCVSP
notes: internal positive control antigen; exogenous foreign neoantigen

Key:
BMDC = assay: Maturation of LPS-stimulated BMDC (costimulatory molecules, cytokines); type: cell-based, mouse; details: PSI-pulsed BMDC stimulated with LPS
NF-κB p65 = assay: Measurement of nuclear NF-κB p65 in BMDC; type: cell-based, mouse; details: 1 μg/ml LPS plus 1 μM PSI for 60 min, compared to control
Description: Measurement of nuclear NF-κB—BMDC were treated with media alone, 1 μg/ml LPS, or LPS plus 1 μM PSI for 60 min. The nuclear extracts were made by using TransFactor Extraction Kit (Clontech Laboratories, Inc., Palo Alto, Calif.) based on the protocol recommended by the manufacturer. NF-κB p65 was measured by using Mercury TransFactor Kits (Clontech Labs, Inc., Palo Alto, Calif.) according to manufacturer's protocol.

DO11.10 CD4^+ T cells = assay: T cell cytokine assays (ELISA of culture supernatants); type: cell-based, mouse; details: PSI-pretreated, OVA peptide-pulsed BMDC
Description: […] The culture supernatants (SN) were collected at different times and pooled together for assay. SN collected after 24 hr of culture were used for IL-2 assay and SN collected at 72 h of culture were used for IL-10, IL-4, and IFNγ assays. The cytokine content in SN was determined by ELISA as previously described by Cong et al. (Cong et al., CD4+ T cells reactive to enteric bacterial antigens in spontaneously colitic C3H/HeJBir mice: increased T helper cell type 1 response and ability to transfer disease. Journal of Experimental Medicine 187:855 (1998).

[1] = test system: DO11.10.RAG2−/− CD4^+ T cells; assay: T cell proliferation assay with PSI-pretreated, OVA peptide-pulsed BMDC; type: cell-based, mouse; details: BMDC pretreated with 1 μM PSI 4 hrs, then OVA peptide 20 hrs; p<0.005
Description: Generation of PSI-APC Treg cells—BMDC generated from BALB/c mice were treated with 1 μM PSI dissolved in DMSO for 4 hrs and then 5 μg/ml OVA peptide for additional 20 hrs at 1×10^6/ml. After washing twice, the pretreated BMDC were added at 1×10^5/ml into cultures of 1×10^6 freshly isolated CD4^+ T cells from DO11.10.RAG2^−/− mice. Seven days later, the CD4^+ T cells were re-isolated with CD4-magnet beads (Pharmingen, San Diego, Calif.) and used to test for regulatory activity (PSI-APC Treg). Freshly isolated CD4^+ T cells from DO11.10.RAG2^−/− mice were also cultured with 5 μg/ml OVA peptide-pulsed BMDC as control, and used as memory T cells (Them).
After 4 d of incubation, 0.5 μCi of ^3H-thymidine was added to each culture for the last 18 hr of the incubation period. The cells were harvested on glass fiber filters on a PHD cell harvested (Cambridge Technology, Watertown, Mass.) and proliferation was assessed as the amount of incorporation of ^3H-thymidine into cell DNA, as measured by beta scintillation counting of the harvested samples. Data are expressed as CPM±SD.

mice = details: mouse, in vivo
Splenic CD4^+ T cells = assay: Antigen-specific proliferation of splenic CD4+ T cells (3H-thymidine); type: cell-based, mouse

| Molecule | IL-10 production by BMDC (BMDC) | IL-12p70 cytokine production (BMDC) | expression of costimulatory molecules CD40, CD86 and MHC class II (BMDC) | NF-κB p65 in nuclear extracts (NF-κB p65) | T cell IL-4 production (DO11.10 CD4^+ T cells) | reduction of T cell IFNα production (DO11.10 CD4^+ T cells) [%] | reduction of T cell IL-2 production (DO11.10 CD4^+ T cells) [%] | reduction of T cell IL-10 production (DO11.10 CD4^+ T cells) [%] | naïve CD4+ T cell proliferation to OVA peptide-pulsed BMDC [1] | intestinal IgA response to OVA (mice) | serum IgG response to OVA (mice) | median stimulation index (Splenic CD4^+ T cells; post immunization (day 35), 50 μg/ml antigen) | T cell proliferative response, stimulation index (SI) (Splenic CD4^+ T cells; unimmunized mice) |
| --- | --- | --- | --- | --- | --- | --- | --- | --- | --- | --- | --- | --- | --- |
| CC[C@H](C)[C@H](NC(=O)OCc1ccccc1)C(=O)N[C@@H](CCC(=O)OC(C)(C)C)C(=O)N[C@@H](C)C(=O)N[C@H](C=O)CC(C)C [PSI, benzyloxycarbonyl-isoleucyl-glutamyl(O-tert-butyl)-alanyl-leucinal] (Cbz-IE(OtBu)AL-aldehyde) | not affected | did not upregulate | did not upregulate | inhibited BMDC NF-κβ activation; also recorded: reduced levels of NF-κB p65 | no IL-4 production | 81 | 89 | 79 | inhibited T cell proliferation and cytokine production; also recorded: greatly decreased |  |  |  |  |
| cholera toxin [CT] |  |  |  |  |  |  |  |  |  | strong intestinal IgA response | strong serum IgG response to OVA |  |  |
| B1 |  |  |  |  |  |  |  |  |  | virtually no intestinal IgA to OVA | no serum IgG response to OVA | 17.1 | < 3 |
